Earlier results in patent US20110082407A1, “Combination Therapies for the Treatment of Obesity” (priority 2009, published 2011).

Columns and labels:
[1] = literature studies
[2] = in vivo

Compound | weight loss of body weight for drug compared with placebo [1] | clinically significant side effect limiting clinical use [2] | solubility in water
CCN[C@@H](C)Cc1cccc(C(F)(F)F)c1 [dexfenfluramine] | about 5% | suspected heart valvulopathy | 
CCNC(C)Cc1cccc(C(F)(F)F)c1 (centres unmarked) [fenfluramine] |  | caused heart-valve complications | 
CCCCCCCCCCC[C@@H](C[C@@H]1OC(=O)[C@H]1CCCCCC)OC(=O)[C@H](CC(C)C)NC=O [orlistat] | about 5% | GI side effects | 
CC(C)CC(N(C)C)C1(c2ccc(Cl)cc2)CCC1 (centres unmarked) [sibutramine] | about 5% | can cause hypertension | 
triacetyl-beta-cyclodextrin |  |  | insoluble
